Measured values published in patent publication US20230398130A1, “METHODS AND COMPOSITIONS FOR DIFFERENTIATING STEM CELLS” (Massachusetts Institute of Technology, priority 2020, published 2023).

Experiments:
ISC-enriched organoids [1] = test: Primary screen, 384-well 2.5-D organoid differentiation (ENR+CD, 6 days): carbachol-induced lysozyme secretion (LYZ.S); format: cell-based, murine; conditions: primary screen; for Dose.FC.LYZ.S: FC vs plate median; for Z.LYZ.S: standard z score; for SSMD.LYZ.S: strictly standardized mean difference
Excerpt: (§1) High-throughput screening.

ISC-enriched organoids [2] = test: Primary screen, 384-well 2.5-D organoid differentiation (ENR+CD, 6 days, Target Selective Inhibitor Library, vs whole-plate median): ATP (CellTiter-Glo 3D, CTG); conditions: primary screen; for Dose.FC.CTG: FC vs plate median; for Z.CTG: standard z score; for SSMD.CTG: strictly standardized mean difference
ISC-enriched organoids [3] = test: Primary screen, 384-well 2.5-D organoid differentiation (ENR+CD, 6 days): basal lysozyme secretion (LYZ.NS); format: cell-based, murine; conditions: primary screen; for Dose.FC.LYZ.NS: FC vs plate median; for Z.LYZ.NS: standard z score; for SSMD.LYZ.NS: strictly standardized mean difference
Excerpt: as §1

[4] = 1st of the 4 dose lines of the treatment (dose not given)
[5] = 2nd of the 4 dose lines of the treatment (dose not given)
[6] = 3rd of the 4 dose lines of the treatment (dose not given)
[7] = 4th of the 4 dose lines of the treatment (dose not given)

Substance	Dose.FC.LYZ.S (ISC-enriched organoids [1]; Dose 0.08 uM) [log 2 fold change]	Dose.FC.LYZ.S (ISC-enriched organoids [1]; Dose 0.40 uM) [log 2 fold change]	Dose.FC.LYZ.S (ISC-enriched organoids [1]; Dose 2.00 uM) [log 2 fold change]	Dose.FC.LYZ.S (ISC-enriched organoids [1]; Dose 10.00 uM) [log 2 fold change]	Z.LYZ.S (ISC-enriched organoids [1]; [4])	Z.LYZ.S (ISC-enriched organoids [1]; [5])	Z.LYZ.S (ISC-enriched organoids [1]; [6])	Z.LYZ.S (ISC-enriched organoids [1]; [7])	SSMD.LYZ.S (ISC-enriched organoids [1]; [4])	SSMD.LYZ.S (ISC-enriched organoids [1]; [5])	SSMD.LYZ.S (ISC-enriched organoids [1]; [6])	SSMD.LYZ.S (ISC-enriched organoids [1]; [7])	Dose.FC.CTG (ISC-enriched organoids [2]; Dose 0.08 uM) [log 2 fold change]	Z.CTG (ISC-enriched organoids [2]; Dose 0.08 uM)	Dose.FC.CTG (ISC-enriched organoids [2]; Dose 0.40 uM) [log 2 fold change]	Z.CTG (ISC-enriched organoids [2]; Dose 0.40 uM)	Dose.FC.CTG (ISC-enriched organoids [2]; Dose 2.00 uM) [log 2 fold change]	Z.CTG (ISC-enriched organoids [2]; Dose 2.00 uM)	Dose.FC.CTG (ISC-enriched organoids [2]; Dose 10.00 uM) [log 2 fold change]	Z.CTG (ISC-enriched organoids [2]; Dose 10.00 uM)	other results
HA14-1	0.190	0.316	0.170	0.149	1.231	2.041	1.099	0.964	1.264	1.052	1.202	0.449	0.534	1.276	0.526	1.255	0.554	1.323	0.388	0.926	SSMD.CTG (ISC-enriched organoids [2]; [4]): 1.389; SSMD.CTG (ISC-enriched organoids [2]; [5]): 1.961; SSMD.CTG (ISC-enriched organoids [2]; [6]): 2.075; SSMD.CTG (ISC-enriched organoids [2]; [7]): 1.289; Dose.FC.LYZ.NS (ISC-enriched organoids [3]; Dose 0.08 uM): 0.121 log 2 fold change; Z.LYZ.NS (ISC-enriched organoids [3]; Dose 0.08 uM): 1.052; Dose.FC.LYZ.NS (ISC-enriched organoids [3]; Dose 0.40 uM): 0.137 log 2 fold change; Z.LYZ.NS (ISC-enriched organoids [3]; Dose 0.40 uM): 1.195; Dose.FC.LYZ.NS (ISC-enriched organoids [3]; Dose 2.00 uM): 0.154 log 2 fold change; Z.LYZ.NS (ISC-enriched organoids [3]; Dose 2.00 uM): 1.345; Dose.FC.LYZ.NS (ISC-enriched organoids [3]; Dose 10.00 uM): 0.132 log 2 fold change; Z.LYZ.NS (ISC-enriched organoids [3]; Dose 10.00 uM): 1.151; SSMD.LYZ.NS (ISC-enriched organoids [3]; [4]): 1.056; SSMD.LYZ.NS (ISC-enriched organoids [3]; [5]): 1.013; SSMD.LYZ.NS (ISC-enriched organoids [3]; [6]): 1.483; SSMD.LYZ.NS (ISC-enriched organoids [3]; [7]): 0.640
I-BET151 (GSK1210151A)	−0.242	−0.344	−0.416	−0.408	−1.563	−2.225	−2.687	−2.641	−1.087	−1.784	−1.815	−1.694	−0.016	−0.039	−0.174	−0.415	−0.502	−1.200	−0.935	−2.233	SSMD.CTG (ISC-enriched organoids [2]; [4]): −0.045; SSMD.CTG (ISC-enriched organoids [2]; [5]): −0.433; SSMD.CTG (ISC-enriched organoids [2]; [6]): −1.788; SSMD.CTG (ISC-enriched organoids [2]; [7]): −2.304; Dose.FC.LYZ.NS (ISC-enriched organoids [3]; Dose 0.08 uM): −0.116 log 2 fold change; Z.LYZ.NS (ISC-enriched organoids [3]; Dose 0.08 uM): −1.010; Dose.FC.LYZ.NS (ISC-enriched organoids [3]; Dose 0.40 uM): −0.248 log 2 fold change; Z.LYZ.NS (ISC-enriched organoids [3]; Dose 0.40 uM): −2.159; Dose.FC.LYZ.NS (ISC-enriched organoids [3]; Dose 2.00 uM): −0.299 log 2 fold change; Z.LYZ.NS (ISC-enriched organoids [3]; Dose 2.00 uM): −2.601; Dose.FC.LYZ.NS (ISC-enriched organoids [3]; Dose 10.00 uM): −0.284 log 2 fold change; Z.LYZ.NS (ISC-enriched organoids [3]; Dose 10.00 uM): −2.473; SSMD.LYZ.NS (ISC-enriched organoids [3]; [4]): −0.856; SSMD.LYZ.NS (ISC-enriched organoids [3]; [5]): −1.677; SSMD.LYZ.NS (ISC-enriched organoids [3]; [6]): −1.629; SSMD.LYZ.NS (ISC-enriched organoids [3]; [7]): −1.342
Ifenprodil Tartrate	0.050	0.017	−0.023	−0.301	0.325	0.107	−0.151	−1.947	0.255	0.091	−0.103	−1.030	0.102	0.243	0.111	0.265	−0.003	−0.008	−1.034	−2.471	SSMD.CTG (ISC-enriched organoids [2]; [4]): 0.218; SSMD.CTG (ISC-enriched organoids [2]; [5]): 0.279; SSMD.CTG (ISC-enriched organoids [2]; [6]): −0.009; SSMD.CTG (ISC-enriched organoids [2]; [7]): −1.277; Dose.FC.LYZ.NS (ISC-enriched organoids [3]; Dose 0.08 uM): 0.056 log 2 fold change; Z.LYZ.NS (ISC-enriched organoids [3]; Dose 0.08 uM): 0.492; Dose.FC.LYZ.NS (ISC-enriched organoids [3]; Dose 0.40 uM): −0.019 log 2 fold change; Z.LYZ.NS (ISC-enriched organoids [3]; Dose 0.40 uM): −0.161; Dose.FC.LYZ.NS (ISC-enriched organoids [3]; Dose 2.00 uM): 0.123 log 2 fold change; Z.LYZ.NS (ISC-enriched organoids [3]; Dose 2.00 uM): 1.068; Dose.FC.LYZ.NS (ISC-enriched organoids [3]; Dose 10.00 uM): −0.219 log 2 fold change; Z.LYZ.NS (ISC-enriched organoids [3]; Dose 10.00 uM): −1.909; SSMD.LYZ.NS (ISC-enriched organoids [3]; [4]): 0.372; SSMD.LYZ.NS (ISC-enriched organoids [3]; [5]): −0.116; SSMD.LYZ.NS (ISC-enriched organoids [3]; [6]): 0.504; SSMD.LYZ.NS (ISC-enriched organoids [3]; [7]): −1.176
KX2-391	−0.396	−0.380	−0.424	−0.419	−2.561	−2.455	−2.741	−2.709	−2.252	−1.641	−1.898	−2.140	−0.752	−1.796	−1.251	−2.989	−1.983	−4.737	−1.414	−3.377	SSMD.CTG (ISC-enriched organoids [2]; [4]): −2.473; SSMD.CTG (ISC-enriched organoids [2]; [5]): −2.845; SSMD.CTG (ISC-enriched organoids [2]; [6]): −2.822; SSMD.CTG (ISC-enriched organoids [2]; [7]): −1.255; Dose.FC.LYZ.NS (ISC-enriched organoids [3]; Dose 0.08 uM): −0.283 log 2 fold change; Z.LYZ.NS (ISC-enriched organoids [3]; Dose 0.08 uM): −2.468; Dose.FC.LYZ.NS (ISC-enriched organoids [3]; Dose 0.40 uM): −0.292 log 2 fold change; Z.LYZ.NS (ISC-enriched organoids [3]; Dose 0.40 uM): −2.546; Dose.FC.LYZ.NS (ISC-enriched organoids [3]; Dose 2.00 uM): −0.251 log 2 fold change; Z.LYZ.NS (ISC-enriched organoids [3]; Dose 2.00 uM): −2.188; Dose.FC.LYZ.NS (ISC-enriched organoids [3]; Dose 10.00 uM): −0.286 log 2 fold change; Z.LYZ.NS (ISC-enriched organoids [3]; Dose 10.00 uM): −2.494; SSMD.LYZ.NS (ISC-enriched organoids [3]; [4]): −2.177; SSMD.LYZ.NS (ISC-enriched organoids [3]; [5]): −1.855; SSMD.LYZ.NS (ISC-enriched organoids [3]; [6]): −1.701; SSMD.LYZ.NS (ISC-enriched organoids [3]; [7]): −2.061
Maraviroc	0.054	0.195	0.005	0.077	0.350	1.262	0.034	0.495	0.262	0.754	0.028	0.400	−0.084	−0.201	0.079	0.188	−0.009	−0.022	0.139	0.331	SSMD.CTG (ISC-enriched organoids [2]; [4]): −0.294; SSMD.CTG (ISC-enriched organoids [2]; [5]): 0.187; SSMD.CTG (ISC-enriched organoids [2]; [6]): −0.030; SSMD.CTG (ISC-enriched organoids [2]; [7]): 0.270; Dose.FC.LYZ.NS (ISC-enriched organoids [3]; Dose 0.08 uM): 0.047 log 2 fold change; Z.LYZ.NS (ISC-enriched organoids [3]; Dose 0.08 uM): 0.411; Dose.FC.LYZ.NS (ISC-enriched organoids [3]; Dose 0.40 uM): 0.041 log 2 fold change; Z.LYZ.NS (ISC-enriched organoids [3]; Dose 0.40 uM): 0.358; Dose.FC.LYZ.NS (ISC-enriched organoids [3]; Dose 2.00 uM): 0.031 log 2 fold change; Z.LYZ.NS (ISC-enriched organoids [3]; Dose 2.00 uM): 0.269; Dose.FC.LYZ.NS (ISC-enriched organoids [3]; Dose 10.00 uM): 0.087 log 2 fold change; Z.LYZ.NS (ISC-enriched organoids [3]; Dose 10.00 uM): 0.759; SSMD.LYZ.NS (ISC-enriched organoids [3]; [4]): 0.274; SSMD.LYZ.NS (ISC-enriched organoids [3]; [5]): 0.365; SSMD.LYZ.NS (ISC-enriched organoids [3]; [6]): 0.225; SSMD.LYZ.NS (ISC-enriched organoids [3]; [7]): 0.547
